Reference: patent publication US10294212B2 (CURADEV PHARMA PRIVATE LTD., priority 2013, dated 2019)

target: IDO1 in HeLa cells (Homo sapiens (Human), UniProt P14902); assay: HeLa cell based IDO1 assay (IFNγ-induced, KYN in supernatant); conditions: not given
Procedure: HeLa cells were obtained from ATCC and maintained in DMEM supplemented with sodium bicarbonate (2.1 g/L), HEPES (4.1 g/L), L-glutamine (2 mM), non-essential amino acid (84 mg/L) and fetal bovine serum (10% FBS) and maintained at 95% humidity and 5% CO2 in a 37° C. incubator. Unless otherwise stated, all materials were procured from Sigma. Upon incubation with gamma-interferon (IFNγ ), HeLa cells express IDO1, which catalyzes the formation of N-formyl kynurenine from tryptophan present in growth medium. The assay was performed as follows:
Cells were plated in medium (300 μL) at a density of 0.1 million per well of a 48 well plate and hIDO1 was induced by overnight treatment with IFNγ (50 ng/mL) (Peprotech, USA). The following day, cells were washed to remove IFNγ and were incubated with specific concentrations of test compounds (typically 10 μM to 1 nM, final volume 300 μL) in Hanks Balanced Salt Solution (HBSS) containing 80 μM L-tryptophan. Following incubation, supernatant (150 μL) was transferred to a 96 well plate into which 30%TCA (304) was added and the contents further incubated at 65° C. for 15 min to fully convert N-formylkynurenine to kynurenine. The reaction mixture was then centrifuged to remove sediments and the KYN in the supernatant was estimated by UV-visible absorption spectroscopy at 360 nm using a Waters HPLC system fitted with a C-18 column. (Xiangdong Liu et al. Blood 2010, Vol-117, 3520-30; Sono described above).
Percent inhibition at each concentration of test compounds was determined by estimating the decrease in KYN with reference to the reaction control with 1% DMSO vehicle. Data were analyzed using nonlinear regression to generate IC50 values using Graph Pad Prism® 5.

IDO1 in HeLa cells, sequence (P14902 whole entry): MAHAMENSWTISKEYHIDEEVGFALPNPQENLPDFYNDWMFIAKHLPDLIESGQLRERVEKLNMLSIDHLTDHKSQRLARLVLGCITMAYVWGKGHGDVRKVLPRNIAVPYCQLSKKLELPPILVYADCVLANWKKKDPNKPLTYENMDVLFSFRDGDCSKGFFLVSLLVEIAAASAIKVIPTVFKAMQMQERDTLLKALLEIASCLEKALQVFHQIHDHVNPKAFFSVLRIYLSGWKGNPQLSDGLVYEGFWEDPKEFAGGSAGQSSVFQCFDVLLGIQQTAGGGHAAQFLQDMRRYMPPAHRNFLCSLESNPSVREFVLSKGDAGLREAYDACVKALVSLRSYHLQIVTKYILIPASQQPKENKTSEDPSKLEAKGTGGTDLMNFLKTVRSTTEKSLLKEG

SMILES	IC50
CCc1nccc2c(Nc3cccc(C(F)(F)F)c3)c(N)oc12 [Compound 76, 7-Ethyl-N^3-(3-(trifluoromethyl)phenyl)furo[2,3-c]pyridine-2,3-diamine]	< 200 nM
CCCc1nccc2c(Nc3ccc(F)c(Cl)c3)c(N)oc12 [Compound 77, N^3-(3-Chloro-4-fluoro-phenyl)-7-propyl-furo[2,3-c]pyridine-2,3-diamine]	< 200 nM
CCCc1nccc2c(Nc3cccc(C(F)(F)F)c3)c(N)oc12 [Compound 78, 7-Propyl-N^3-(3-(trifluoromethyl)phenyl)furo[2,3-c]pyridine-2,3-diamine]	< 200 nM
CCCc1nccc2c(Nc3ccc(F)c(C(F)(F)F)c3)c(N)oc12 [Compound 79, N^3-(4-Fluoro-3-(trifluoromethyl)phenyl)-7-propylfuro[2,3-c]pyridine-2,3-diamine]	< 200 nM
Cc1nccc2c(Nc3cccc(C(F)(F)F)c3)c(N)oc12 [Compound 80, 7-Methyl-N^3-(3-(trifluoromethyl)phenyl)furo[2,3-c]pyridine-2,3-diamine]	< 200 nM
Nc1oc2c(-c3ccccc3)nccc2c1Nc1ccc(F)c(Cl)c1 [Compound 81, N^3-(3-Chloro-4-fluorophenyl)-7-phenylfuro[2,3-c]pyridine-2,3-diamine]	< 200 nM
Nc1oc2c(-c3ccccc3)nccc2c1Nc1cccc(C(F)(F)F)c1 [Compound 82, 7-Phenyl-N^3-(3-(trifluoromethyl)phenyl)furo[2,3-c]pyridine-2,3-diamine]	< 200 nM
CC(C)c1nccc2c(Nc3ccc(F)c(Cl)c3)c(N)oc12 [Compound 83, N^3-(3-Chloro-4-fluorophenyl)-7-isopropylfuro[2,3-c]pyridine-2,3-diamine]	< 200 nM
Nc1oc2cnccc2c1Nc1cccc(CC2CC2)c1 [Compound 84, N^3-(3-(Cyclopropylmethyl)phenyl)furo[2,3-c]pyridine-2,3-diamine]	200 to 1000 nM
COc1cc2c(Nc3ccc(F)c(Cl)c3)c(N)oc2c(C)n1 [Compound 85, N^3-(3-Chloro-4-fluoro-phenyl)-5-methoxy-7-methyl-furo[2,3-c]pyridine-2,3-diamine]	< 200 nM
Cc1cc(Cl)cc(Nc2c(N)oc3cnccc23)c1 [Compound 87, N^3-(3-Chloro-5-methylphenyl)furo[2,3-c]pyridine-2,3-diamine]	200 to 1000 nM
COc1cccc(-c2nccc3c(Nc4ccc(F)c(Cl)c4)c(N)oc23)c1 [Compound 90, N^3-(3-Chloro-4-fluorophenyl)-7-(3-methoxyphenyl)furo[2,3-c]pyridine-2,3-diamine]	< 200 nM
C#Cc1cccc(Nc2c(N)oc3c(C)nccc23)c1 [Compound 93, N^3-(3-ethynylphenyl)-7-methylfuro[2,3-c]pyridine-2,3-diamine]	< 200 nM
Nc1oc2c(-c3cccnc3)nccc2c1Nc1ccc(F)c(Cl)c1 [Compound 94, N^3-(3-chloro-4-fluorophenyl)-7-(pyridin-3-yl)furo[2,3-c]pyridine-2,3-diamine]	< 200 nM
C#Cc1cccc(Nc2c(N)oc3c(CC)nccc23)c1 [Compound 96, 7-Ethyl-N^3-(3-ethynylphenyl)furo[2,3-c]pyridine-2,3-diamine]	< 200 nM
COc1ccccc1-c1nccc2c(Nc3ccc(F)c(Cl)c3)c(N)oc12 [Compound 98, N^3-(3-Chloro-4-fluorophenyl)-7-(2-methoxyphenyl)furo[2,3-c]pyridine-2,3-diamine]	< 200 nM

target: Human TDO (hTDO)-transfected CHO-K1 cells (Homo sapiens (Human), UniProt P48775); assay: CHO-K1 cell based TDO assay; conditions: hTDO cellular assay
Sequence (P48775 whole entry): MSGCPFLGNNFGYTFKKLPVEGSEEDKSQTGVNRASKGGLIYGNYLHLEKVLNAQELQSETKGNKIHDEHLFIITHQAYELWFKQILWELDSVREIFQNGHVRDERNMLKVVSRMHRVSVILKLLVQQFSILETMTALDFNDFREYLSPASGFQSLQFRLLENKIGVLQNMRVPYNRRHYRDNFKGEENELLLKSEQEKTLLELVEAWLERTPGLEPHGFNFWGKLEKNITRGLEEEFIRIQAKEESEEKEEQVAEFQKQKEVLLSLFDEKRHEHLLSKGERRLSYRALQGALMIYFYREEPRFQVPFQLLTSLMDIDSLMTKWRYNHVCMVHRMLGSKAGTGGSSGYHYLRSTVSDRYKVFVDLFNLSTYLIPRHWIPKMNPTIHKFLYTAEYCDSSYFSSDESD
Procedure, shortened: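 Kynurenine output was read by LC/MS/MS after TCA precipitation and 15 min at 65° C. Before that, CHO-K1 cells stably carrying human TDO2 were incubated 2 h with compounds (typically 31 μM to 10 nM) and 80 μM L-tryptophan in HBSS. Decrease versus DMSO vehicle gave percent inhibition, then IC50.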

SMILES	IC50
CCc1nccc2c(Nc3cccc(C(F)(F)F)c3)c(N)oc12 [Compound 76, 7-Ethyl-N^3-(3-(trifluoromethyl)phenyl)furo[2,3-c]pyridine-2,3-diamine]	500 to 2000 nM
CCCc1nccc2c(Nc3ccc(F)c(Cl)c3)c(N)oc12 [Compound 77, N^3-(3-Chloro-4-fluoro-phenyl)-7-propyl-furo[2,3-c]pyridine-2,3-diamine]	> 2000 nM
CCCc1nccc2c(Nc3cccc(C(F)(F)F)c3)c(N)oc12 [Compound 78, 7-Propyl-N^3-(3-(trifluoromethyl)phenyl)furo[2,3-c]pyridine-2,3-diamine]	> 2000 nM
CCCc1nccc2c(Nc3ccc(F)c(C(F)(F)F)c3)c(N)oc12 [Compound 79, N^3-(4-Fluoro-3-(trifluoromethyl)phenyl)-7-propylfuro[2,3-c]pyridine-2,3-diamine]	500 to 2000 nM
Cc1nccc2c(Nc3cccc(C(F)(F)F)c3)c(N)oc12 [Compound 80, 7-Methyl-N^3-(3-(trifluoromethyl)phenyl)furo[2,3-c]pyridine-2,3-diamine]	> 2000 nM
Nc1oc2c(-c3ccccc3)nccc2c1Nc1ccc(F)c(Cl)c1 [Compound 81, N^3-(3-Chloro-4-fluorophenyl)-7-phenylfuro[2,3-c]pyridine-2,3-diamine]	< 500 nM
Nc1oc2c(-c3ccccc3)nccc2c1Nc1cccc(C(F)(F)F)c1 [Compound 82, 7-Phenyl-N^3-(3-(trifluoromethyl)phenyl)furo[2,3-c]pyridine-2,3-diamine]	> 2000 nM
CC(C)c1nccc2c(Nc3ccc(F)c(Cl)c3)c(N)oc12 [Compound 83, N^3-(3-Chloro-4-fluorophenyl)-7-isopropylfuro[2,3-c]pyridine-2,3-diamine]	500 to 2000 nM
Nc1oc2cnccc2c1Nc1cccc(CC2CC2)c1 [Compound 84, N^3-(3-(Cyclopropylmethyl)phenyl)furo[2,3-c]pyridine-2,3-diamine]	> 2000 nM
COc1cc2c(Nc3ccc(F)c(Cl)c3)c(N)oc2c(C)n1 [Compound 85, N^3-(3-Chloro-4-fluoro-phenyl)-5-methoxy-7-methyl-furo[2,3-c]pyridine-2,3-diamine]	500 to 2000 nM
Cc1cc(Cl)cc(Nc2c(N)oc3cnccc23)c1 [Compound 87, N^3-(3-Chloro-5-methylphenyl)furo[2,3-c]pyridine-2,3-diamine]	500 to 2000 nM
COc1cccc(-c2nccc3c(Nc4ccc(F)c(Cl)c4)c(N)oc23)c1 [Compound 90, N^3-(3-Chloro-4-fluorophenyl)-7-(3-methoxyphenyl)furo[2,3-c]pyridine-2,3-diamine]	500 to 2000 nM
C#Cc1cccc(Nc2c(N)oc3c(C)nccc23)c1 [Compound 93, N^3-(3-ethynylphenyl)-7-methylfuro[2,3-c]pyridine-2,3-diamine]	500 to 2000 nM
Nc1oc2c(-c3cccnc3)nccc2c1Nc1ccc(F)c(Cl)c1 [Compound 94, N^3-(3-chloro-4-fluorophenyl)-7-(pyridin-3-yl)furo[2,3-c]pyridine-2,3-diamine]	< 500 nM
C#Cc1cccc(Nc2c(N)oc3c(CC)nccc23)c1 [Compound 96, 7-Ethyl-N^3-(3-ethynylphenyl)furo[2,3-c]pyridine-2,3-diamine]	500 to 2000 nM
COc1ccccc1-c1nccc2c(Nc3ccc(F)c(Cl)c3)c(N)oc12 [Compound 98, N^3-(3-Chloro-4-fluorophenyl)-7-(2-methoxyphenyl)furo[2,3-c]pyridine-2,3-diamine]	500 to 2000 nM

target: Human indoleamine 2,3-dioxygenase1 (hIDO1) (Homo sapiens (Human), UniProt P14902); assay: In-vitro IDO1 enzyme assay (conversion of L-tryptophan to KYN); format: biochemical; conditions: read-out: IC50 (IDO1) Enz
Sequence (P14902 whole entry): as the sequence (P14902 whole entry) above
Procedure, shortened: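 Kynurenine formation quantified by HPLC absorbance at 360 nm or LC/MS/MS after TCA quench and 15 min at 65 °C. Reaction: 10 nM N-His hIDO1, 30 μM tryptophan, ascorbate/methylene blue/catalase, pH 6.5 phosphate buffer, 37 °C for 30 min. Inhibition relative to 1% DMSO vehicle, fitted to IC50.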

SMILES	IC50
CCc1nccc2c(Nc3cccc(C(F)(F)F)c3)c(N)oc12 [Compound 76, 7-Ethyl-N^3-(3-(trifluoromethyl)phenyl)furo[2,3-c]pyridine-2,3-diamine]	< 200 nM
CCCc1nccc2c(Nc3ccc(F)c(Cl)c3)c(N)oc12 [Compound 77, N^3-(3-Chloro-4-fluoro-phenyl)-7-propyl-furo[2,3-c]pyridine-2,3-diamine]	< 200 nM
CCCc1nccc2c(Nc3cccc(C(F)(F)F)c3)c(N)oc12 [Compound 78, 7-Propyl-N^3-(3-(trifluoromethyl)phenyl)furo[2,3-c]pyridine-2,3-diamine]	< 200 nM
CCCc1nccc2c(Nc3ccc(F)c(C(F)(F)F)c3)c(N)oc12 [Compound 79, N^3-(4-Fluoro-3-(trifluoromethyl)phenyl)-7-propylfuro[2,3-c]pyridine-2,3-diamine]	< 200 nM
Cc1nccc2c(Nc3cccc(C(F)(F)F)c3)c(N)oc12 [Compound 80, 7-Methyl-N^3-(3-(trifluoromethyl)phenyl)furo[2,3-c]pyridine-2,3-diamine]	< 200 nM
Nc1oc2c(-c3ccccc3)nccc2c1Nc1ccc(F)c(Cl)c1 [Compound 81, N^3-(3-Chloro-4-fluorophenyl)-7-phenylfuro[2,3-c]pyridine-2,3-diamine]	< 200 nM
Nc1oc2c(-c3ccccc3)nccc2c1Nc1cccc(C(F)(F)F)c1 [Compound 82, 7-Phenyl-N^3-(3-(trifluoromethyl)phenyl)furo[2,3-c]pyridine-2,3-diamine]	< 200 nM
CC(C)c1nccc2c(Nc3ccc(F)c(Cl)c3)c(N)oc12 [Compound 83, N^3-(3-Chloro-4-fluorophenyl)-7-isopropylfuro[2,3-c]pyridine-2,3-diamine]	< 200 nM
Nc1oc2cnccc2c1Nc1cccc(CC2CC2)c1 [Compound 84, N^3-(3-(Cyclopropylmethyl)phenyl)furo[2,3-c]pyridine-2,3-diamine]	> 1000 nM
COc1cc2c(Nc3ccc(F)c(Cl)c3)c(N)oc2c(C)n1 [Compound 85, N^3-(3-Chloro-4-fluoro-phenyl)-5-methoxy-7-methyl-furo[2,3-c]pyridine-2,3-diamine]	< 200 nM
Cc1cc(Cl)cc(Nc2c(N)oc3cnccc23)c1 [Compound 87, N^3-(3-Chloro-5-methylphenyl)furo[2,3-c]pyridine-2,3-diamine]	200 to 1000 nM
COc1cccc(-c2nccc3c(Nc4ccc(F)c(Cl)c4)c(N)oc23)c1 [Compound 90, N^3-(3-Chloro-4-fluorophenyl)-7-(3-methoxyphenyl)furo[2,3-c]pyridine-2,3-diamine]	< 200 nM
C#Cc1cccc(Nc2c(N)oc3c(C)nccc23)c1 [Compound 93, N^3-(3-ethynylphenyl)-7-methylfuro[2,3-c]pyridine-2,3-diamine]	200 to 1000 nM
Nc1oc2c(-c3cccnc3)nccc2c1Nc1ccc(F)c(Cl)c1 [Compound 94, N^3-(3-chloro-4-fluorophenyl)-7-(pyridin-3-yl)furo[2,3-c]pyridine-2,3-diamine]	< 200 nM
C#Cc1cccc(Nc2c(N)oc3c(CC)nccc23)c1 [Compound 96, 7-Ethyl-N^3-(3-ethynylphenyl)furo[2,3-c]pyridine-2,3-diamine]	< 200 nM
COc1ccccc1-c1nccc2c(Nc3ccc(F)c(Cl)c3)c(N)oc12 [Compound 98, N^3-(3-Chloro-4-fluorophenyl)-7-(2-methoxyphenyl)furo[2,3-c]pyridine-2,3-diamine]	< 200 nM
